Assay: Thymol retention on porous titanium in open air, remaining thymol by HPLC
Type: physicochemical
Settings: 360 h

amount of thymol remaining in the samples: almost no thymol left
SMILES: Cc1ccc(C(C)C)c(O)c1 [free thymol, thymol]
